Measurements from patent US20230321171A1, “ANTI-COCCIDIAL COMPOSITION COMPRISING MANGOSTEEN AND USES THEREOF” (CJ CHEILJEDANG CORPORATION, priority 2020, published 2023).

Tests used:
Eimeria tenella [1] = assay: Protozoan (sporozoite) direct killing ability, Eimeria tenella; type: cell-based; details: Table 15, method similar to Example 2-1
[2] = tested on: RAW264.7(Mouse macrophage cell); assay: Cytotoxicity, MTS analysis, RAW264.7; details: 3.1~500 ppm/well, 14 hours + 2 hours MTS, vs 5% DMSO treatment group
Excerpt: (§1) In the present example, using MTS analysis method (3-(4,5-[…])-5-(3-carboxymethoxyphenyl)-2-(4-sulfophenyl)-2H-tetrazolium, promega, USA), an effect on survival of cells of the mangosteen extract was investigated.
(§2) The cell lines utilized in cytotoxicity evaluation were (1) MDBK(Madin-Darby Bovine Kidney Epithelial Cells) and (2) RAW264.7(Mouse macrophage cell), and all of them were purchased from ATCC and used.
(§3) Each cell was aliquoted at a concentration of 1×10^5 cell/well in a 96-well cell culture plate, and cultured at 37° C. for 24 hours, and then each material (mangosteen extract, xanthone, alpha-mangostin and epicatechin) was treated by concentration (3.1˜500 ppm/well) and cultured at a temperature of 37° C.

[3] = tested on: MDBK(Madin-Darby Bovine Kidney Epithelial Cells); assay: Cytotoxicity, MTS analysis, MDBK; details: 3.1~500 ppm/well, 14 hours + 2 hours MTS, vs 5% DMSO treatment group
Excerpt: as §1, §2, §3

Eimeria tenella [4] = assay: Protozoan (sporozoite) direct killing ability, Eimeria tenella; type: cell-based; details: for Eimeria tenella protozoal death rate: Table 12 comparison with individual components; for Eimeria tenella protozoal death rate (%): compared to PBS-treated negative control group; for Minimum concentration for killing 100% protozoa (ppm), Eimeria tenella: tested 1 to 500 ppm
Description: (§4) In the present example, protozoan (sporozoite) direct killing ability evaluation was conducted against 3 representative Eimeria kinds known to be infected in most farms (E. tenella, E. acervulina, E. maxima).
(§5) A certain amount of oocysts of each protozoan was put in a tube containing glass beads and pulverized, and then to remove the crushed oocyst cell wall and other debris, internal sporocysts were purified using the percoll density gradient, and washed with PBS solution. A reagent comprising sodium taurocholic acid (Sigma aldrich, USA) and trypsin (Gibco, USA), respectively, was treated to sporocysts of Eimeria tenella, Eimeria acervulina and Eimeria maxima for excystation and they were incubated, and then they were washed with PBS solution once and protozoa were obtained.
(§6) After reacting the mangosteen pericarp extract, epicatechin, alpha-mangostin, xanthone and anticoccidial agents, salinomycin and diclazuril (hereinafter, material) with 3 kinds of Eimeria protozoa at various concentrations of 1 to 500 ppm, respectively, only alive protozoa (sporozoites) were counted through microscopic observation. Then, the death rate (%) of the protozoa when each material was treated compared to the PBS-treated negative control group was calculated and shown in Table 8 to Table 10 and Table 12, respectively, and the minimum concentration which directly killed the protozoa by 100% was shown in Table 11 below.

Eimeria acervulina = assay: Protozoan (sporozoite) direct killing ability, Eimeria acervulina; type: cell-based; details: for Eimeria acervulina protozoal death rate (%): compared to PBS-treated negative control group; for Minimum concentration for killing 100% protozoa (ppm), Eimeria acervulina: tested 1 to 500 ppm
Description: as §4, §5, §6

Eimeria maxima = assay: Protozoan (sporozoite) direct killing ability, Eimeria maxima; type: cell-based; details: for Eimeria maxima protozoal death rate (%): compared to PBS-treated negative control group; for Minimum concentration for killing 100% protozoa (ppm), Eimeria maxima: tested 1 to 500 ppm
Description: as §4, §5, §6

[5] = Broiler growth effect (daily weight gain) due to intake in feed; type: in vivo, Ross broilers; details: formulated feed 60 ppm for 7 days
Description: (§7) An efficacy evaluation test was performed in an animal experiment facility in Gyeongsangnam-do, South Korea. One-day-old female Ross broilers were individually weighed and randomly divided into groups to use in an experiment. Matters and conditions for experimental design were described in Table 16.
(§8) A breeding farm was managed according to the Korean poultry breeding management guidelines. Cages and the breeding farm were cleaned and disinfected before starting the test. The temperature of […] and the humidity of 40 to 50% of the breeding farm were maintained, and it was continuously monitored.
(§9) For the feed, Korea Feed A1-choi product was used, and each material (salinomycin (Cheil Bio Cheilsalino-60 product), xanthone (Sigma Aldrich X600 product), and the mangosteen extract prepared in Example 1-2 above) was added to the feed, respectively, at a concentration described in Table 17 below to be self-mixed. Antibiotics and supplements were not used in general feed and mixed feed, and no anticoccidial agent other than each material was added. Broilers were fed ad libitum throughout the experiment period. After putting 20 1-day-age broilers in cages randomly placed for each of the control group or test group and breeding, general feed was fed for 7 days, and then the mixed feed prepared above was ingested by dividing by control group or test group. The feed formulation administered to the control group (negative control group or positive control group) and test group was described in Table 17 below.
The body weight before feeding and on the 7th day after feeding the feed of Table 16 above into individuals was measured, and the difference was divided by the number of days to calculate the daily weight gain (ADG, g/d), and the result was shown in Table 18. For comparison between 6 treatment groups, Duncan post-test multiple comparison method was used, and statistical significance was verified using a SAS statistical program, and the result was shown in Table 18.

Eimeria tenella [6] = assay: In vivo anticoccidial efficacy evaluation in broilers challenge-inoculated with Eimeria tenella; set-up: species or system Ross broilers
Description: as §7, with “An in vivo anticoccidial” for “An”, “2.” for “16.”
as §8
as §9, with “Al-choi” for “A1-choi”, “3” for “17”, “group.” for “group. The feed formulation administered to the control group (negative control group or positive control group) and test group was described in Table 17 below.”
The feed formulation administered to the control group (negative control group or positive control group) and test group and whether coccidiosis was induced by Eimeria tenella were described in Table 3 below. 20 1-day-old broilers were put in a cage randomly arranged for each test group, and after 7 days of feeding the general feed, the formulated feed as described in Table 3 was divided into each test group and ingested.
14-day-old broilers were orally inoculated with 10,000 oocysts (90% sporulated Eimeria tenella oocysts) per individual to induce coccidiosis.
The anticoccidial efficacy by test group designed in Example 1-3 above was shown as an anticoccidial index (ACI), and the anticoccidial index was calculated by Equation 2 below. The ACI score is out of 200 points, and the higher the ACI score, the more excellent the anticoccidial ability, and when it is 120 points or more to less than 140 points, it is determined that it is effective as an anticoccidial material, and when it is 140 points or more to less than 160 points, it is determined that it is excellent as an anticoccidial material, and when it is 160 points or more, it is determined that the anticoccidial effect is very excellent. (Luis Miguel De Pablos et al., Anticoccidial activity of maslinic acid against infection with Eimeria tenella in chickens, Parasitol Res, 2010)
Anticoccidial index (ACI)=(survival rate after challenge inoculation (%))+(daily weight gain compared to negative control group (RWG, %))−(lesion score×10)−(fecal oocyst excretion amount index) (Equation 2)
1) Survival rate: the number of dead individuals was recorded daily, and post mortem autopsy was performed to determine a cause of mortality, and the number of individuals who died due to causes other than coccidiosis was excluded. The survival rate (%) up to the 8th day after challenge inoculation was used for anticoccidial index calculation.
2) Daily weight gain: body weight was measured for each cage before challenge inoculation with a protozoan into an individual and at the 7th day after challenge inoculation, and the difference was divided by the number of days to calculate the daily weight gain (ADG, g/d). ‘Daily weight gain compared to the negative control group (RWG, %)’which was calculated by dividing the daily weight gain (ADG, average daily gain; g/d) of each experimental group by the weight gain (ADG, g/d) of the non-infected negative control group and multiplying by 100 was used for anticoccidial index calculation. […]

COc1c(O)cc2oc3cc(O)c(CC=C(C)C)c(O)c3c(=O)c2c1CC=C(C)C [Alpha-mangostin, alpha-mangostin]
Minimum concentrataion of killing protozoa 100% (ppm) (Eimeria tenella [1]): ≥31.3 ppm | Minimum concentrataion of cytotoxicity at which cells of 50% or more survive (ppm) [2]: ≥15.6 ppm | Minimum concentrataion of cytotoxicity at which cells of 50% or more survive (ppm) [3]: ≥7.8 ppm | Eimeria tenella protozoal death rate (Eimeria tenella [4]; 3.9 ppm): 23.3% | Eimeria tenella protozoal death rate (Eimeria tenella [4]; 7.8 ppm): 50% | Eimeria tenella protozoal death rate (Eimeria tenella [4]; 15.6 ppm): 93.3%

N#CC(c1ccc(Cl)cc1)c1c(Cl)cc(-n2ncc(=O)[nH]c2=O)cc1Cl (centres unmarked) [Diclazuril, diclazuril]
Eimeria acervulina protozoal death rate (%) (Eimeria acervulina; 1 ppm): 0% | Eimeria acervulina protozoal death rate (%) (Eimeria acervulina; 5 ppm): 0% | Eimeria acervulina protozoal death rate (%) (Eimeria acervulina; 10 ppm): 0% | Eimeria acervulina protozoal death rate (%) (Eimeria acervulina; 50 ppm): 0% | Eimeria acervulina protozoal death rate (%) (Eimeria acervulina; 100 ppm): 0% | Eimeria acervulina protozoal death rate (%) (Eimeria acervulina; 125 ppm): 23% | Eimeria acervulina protozoal death rate (%) (Eimeria acervulina; 250 ppm): 12% | Eimeria acervulina protozoal death rate (%) (Eimeria acervulina; 500 ppm): 44% | Minimum concentration for killing 100% protozoa (ppm), Eimeria acervulina (Eimeria acervulina): 500 ppm | Eimeria maxima protozoal death rate (%) (Eimeria maxima; 1 ppm): 0% | Eimeria maxima protozoal death rate (%) (Eimeria maxima; 5 ppm): 0% | Eimeria maxima protozoal death rate (%) (Eimeria maxima; 10 ppm): 0% | Eimeria maxima protozoal death rate (%) (Eimeria maxima; 50 ppm): 0% | Eimeria maxima protozoal death rate (%) (Eimeria maxima; 100 ppm): 0% | Eimeria maxima protozoal death rate (%) (Eimeria maxima; 125 ppm): 0% | Eimeria maxima protozoal death rate (%) (Eimeria maxima; 250 ppm): 16% | Eimeria maxima protozoal death rate (%) (Eimeria maxima; 500 ppm): 30% | Minimum concentration for killing 100% protozoa (ppm), Eimeria maxima (Eimeria maxima): >500 ppm | Eimeria tenella protozoal death rate (%) (Eimeria tenella [4]; 1 ppm): 0% | Eimeria tenella protozoal death rate (%) (Eimeria tenella [4]; 5 ppm): 0% | Eimeria tenella protozoal death rate (%) (Eimeria tenella [4]; 10 ppm): 0% | Eimeria tenella protozoal death rate (%) (Eimeria tenella [4]; 50 ppm): 0% | Eimeria tenella protozoal death rate (%) (Eimeria tenella [4]; 100 ppm): 0% | Eimeria tenella protozoal death rate (%) (Eimeria tenella [4]; 125 ppm): 0% | Eimeria tenella protozoal death rate (%) (Eimeria tenella [4]; 250 ppm): 35% | Eimeria tenella protozoal death rate (%) (Eimeria tenella [4]; 500 ppm): 44% | Minimum concentration for killing 100% protozoa (ppm), Eimeria tenella (Eimeria tenella [4]): >500 ppm

Oc1cc(O)c2c(c1)O[C@H](c1ccc(O)c(O)c1)[C@H](O)C2 [Epicatechin, epicatechin]
Minimum concentrataion of killing protozoa 100% (ppm) (Eimeria tenella [1]): ≥500 ppm | Eimeria tenella protozoal death rate (Eimeria tenella [4]; 3.9 ppm): 0% | Eimeria tenella protozoal death rate (Eimeria tenella [4]; 7.8 ppm): 0% | Eimeria tenella protozoal death rate (Eimeria tenella [4]; 15.6 ppm): 0%

CC[C@@H](C(=O)[C@@H](C)[C@@H](O)[C@H](C)[C@@H]1O[C@@H]([C@@H](CC)C(=O)O)CC[C@@H]1C)[C@H]1O[C@]2(C=C[C@@H](O)[C@]3(CC[C@@](C)([C@H]4CC[C@](O)(CC)[C@H](C)O4)O3)O2)[C@H](C)C[C@@H]1C [Salinomycin, salinomycin]
Eimeria acervulina protozoal death rate (%) (Eimeria acervulina; 1 ppm): 0% | Eimeria acervulina protozoal death rate (%) (Eimeria acervulina; 5 ppm): 0% | Eimeria acervulina protozoal death rate (%) (Eimeria acervulina; 10 ppm): 0% | Eimeria acervulina protozoal death rate (%) (Eimeria acervulina; 50 ppm): 0% | Eimeria acervulina protozoal death rate (%) (Eimeria acervulina; 100 ppm): 60% | Eimeria acervulina protozoal death rate (%) (Eimeria acervulina; 125 ppm): 73% | Eimeria acervulina protozoal death rate (%) (Eimeria acervulina; 250 ppm): 100% | Eimeria acervulina protozoal death rate (%) (Eimeria acervulina; 500 ppm): 100% | Minimum concentration for killing 100% protozoa (ppm), Eimeria acervulina (Eimeria acervulina): 250 ppm | Daily weight gain (ADG) [5]: 46.86 g/day | End-initial body weight (7 days, g) [5]: 328 g | End body weight ([5]; non-infected broilers): 526 g | Eimeria maxima protozoal death rate (%) (Eimeria maxima; 1 ppm): 0% | Eimeria maxima protozoal death rate (%) (Eimeria maxima; 5 ppm): 0% | Eimeria maxima protozoal death rate (%) (Eimeria maxima; 10 ppm): 0% | Eimeria maxima protozoal death rate (%) (Eimeria maxima; 50 ppm): 0% | Eimeria maxima protozoal death rate (%) (Eimeria maxima; 100 ppm): 59% | Eimeria maxima protozoal death rate (%) (Eimeria maxima; 125 ppm): 65% | Eimeria maxima protozoal death rate (%) (Eimeria maxima; 250 ppm): 97% | Eimeria maxima protozoal death rate (%) (Eimeria maxima; 500 ppm): 100% | Minimum concentration for killing 100% protozoa (ppm), Eimeria maxima (Eimeria maxima): 500 ppm | Intermediate body weight (14-day-old, before challenge inoculation) (Eimeria tenella [6]; formulated feed 60 ppm from day 7, female Ross broilers): 455.9 | Appendix lesion score (Eimeria tenella [6]; formulated feed 60 ppm, 8th day after challenge inoculation, scale of 0-4): 2.7 | End body weight (21-day-old, on the 7th day of challenge inoculation) (Eimeria tenella [6]; formulated feed 60 ppm, 10,000 E. tenella oocysts oral at 14 days): 917.6 | Day 14~Day 21 ADG (daily weight gain) (Eimeria tenella [6]; formulated feed 60 ppm, E. tenella infected broilers): 62.46 g/day | Anticoccidial index (ACI) (Eimeria tenella [6]; formulated feed 60 ppm, Equation 2, out of 200 points): 141 | Oocyst excretion amount/gram (Eimeria tenella [6]; formulated feed 60 ppm, feces of 6~8th day of challenge inoculation, McMaster chamber): 1.30E+08 /gram | RWG (daily weight gain compared to the negative control group) (Eimeria tenella [6]; formulated feed 60 ppm, relative to non-infected negative control group): 94% | Eimeria tenella protozoal death rate (%) (Eimeria tenella [4]; 1 ppm): 0% | Eimeria tenella protozoal death rate (%) (Eimeria tenella [4]; 5 ppm): 0% | Eimeria tenella protozoal death rate (%) (Eimeria tenella [4]; 10 ppm): 0% | Eimeria tenella protozoal death rate (%) (Eimeria tenella [4]; 50 ppm): 0% | Eimeria tenella protozoal death rate (%) (Eimeria tenella [4]; 100 ppm): 46% | Eimeria tenella protozoal death rate (%) (Eimeria tenella [4]; 125 ppm): 74% | Eimeria tenella protozoal death rate (%) (Eimeria tenella [4]; 250 ppm): 100% | Eimeria tenella protozoal death rate (%) (Eimeria tenella [4]; 500 ppm): 100% | Minimum concentration for killing 100% protozoa (ppm), Eimeria tenella (Eimeria tenella [4]): 500 ppm
